21 compounds from patent publication US10052306B2 (LUC THERAPEUTICS, INC., priority 2013, dated 2018) can be followed below.

Experiment [1] has as its target NR1/NR2B (Homo sapiens (Human), UniProt Q13224). Nature of the experiment: Cell assay: FDSS Ca2+ influx inhibition in HEK293 cells expressing NR1/NR2B.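 Further: Fluo-8 Ca2+ signal read on Hamamatsu FDSS 6000 after glutamate, glycine and Ca2+ challenge following 10 min compound preincubation, end/baseline fluorescence ratio compared with MK801 control.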 The conditions noted are these: read-out: NR2B NAM IC50; HEK293 cells expressing NR1/NR2B, Ca2+ influx.
Experiment [2] has as its target NR1/NR2B (Homo sapiens (Human), UniProt Q05586+Q13224). The description is as above. The note with it: Binned Activity, HEK293 cells expressing NR1/NR2B, Ca2+ influx; binned NR2B NAM IC50.

Several values for one entry are separate records, joined by “and”; a condition that tells them apart may be missing. Equal values may be shown once. Bounds are passed on as bounds.

Sequence of NR1/NR2B (Homo sapiens (Human), UniProt Q05586+Q13224) (Q13224 27-1484, other chains not shown): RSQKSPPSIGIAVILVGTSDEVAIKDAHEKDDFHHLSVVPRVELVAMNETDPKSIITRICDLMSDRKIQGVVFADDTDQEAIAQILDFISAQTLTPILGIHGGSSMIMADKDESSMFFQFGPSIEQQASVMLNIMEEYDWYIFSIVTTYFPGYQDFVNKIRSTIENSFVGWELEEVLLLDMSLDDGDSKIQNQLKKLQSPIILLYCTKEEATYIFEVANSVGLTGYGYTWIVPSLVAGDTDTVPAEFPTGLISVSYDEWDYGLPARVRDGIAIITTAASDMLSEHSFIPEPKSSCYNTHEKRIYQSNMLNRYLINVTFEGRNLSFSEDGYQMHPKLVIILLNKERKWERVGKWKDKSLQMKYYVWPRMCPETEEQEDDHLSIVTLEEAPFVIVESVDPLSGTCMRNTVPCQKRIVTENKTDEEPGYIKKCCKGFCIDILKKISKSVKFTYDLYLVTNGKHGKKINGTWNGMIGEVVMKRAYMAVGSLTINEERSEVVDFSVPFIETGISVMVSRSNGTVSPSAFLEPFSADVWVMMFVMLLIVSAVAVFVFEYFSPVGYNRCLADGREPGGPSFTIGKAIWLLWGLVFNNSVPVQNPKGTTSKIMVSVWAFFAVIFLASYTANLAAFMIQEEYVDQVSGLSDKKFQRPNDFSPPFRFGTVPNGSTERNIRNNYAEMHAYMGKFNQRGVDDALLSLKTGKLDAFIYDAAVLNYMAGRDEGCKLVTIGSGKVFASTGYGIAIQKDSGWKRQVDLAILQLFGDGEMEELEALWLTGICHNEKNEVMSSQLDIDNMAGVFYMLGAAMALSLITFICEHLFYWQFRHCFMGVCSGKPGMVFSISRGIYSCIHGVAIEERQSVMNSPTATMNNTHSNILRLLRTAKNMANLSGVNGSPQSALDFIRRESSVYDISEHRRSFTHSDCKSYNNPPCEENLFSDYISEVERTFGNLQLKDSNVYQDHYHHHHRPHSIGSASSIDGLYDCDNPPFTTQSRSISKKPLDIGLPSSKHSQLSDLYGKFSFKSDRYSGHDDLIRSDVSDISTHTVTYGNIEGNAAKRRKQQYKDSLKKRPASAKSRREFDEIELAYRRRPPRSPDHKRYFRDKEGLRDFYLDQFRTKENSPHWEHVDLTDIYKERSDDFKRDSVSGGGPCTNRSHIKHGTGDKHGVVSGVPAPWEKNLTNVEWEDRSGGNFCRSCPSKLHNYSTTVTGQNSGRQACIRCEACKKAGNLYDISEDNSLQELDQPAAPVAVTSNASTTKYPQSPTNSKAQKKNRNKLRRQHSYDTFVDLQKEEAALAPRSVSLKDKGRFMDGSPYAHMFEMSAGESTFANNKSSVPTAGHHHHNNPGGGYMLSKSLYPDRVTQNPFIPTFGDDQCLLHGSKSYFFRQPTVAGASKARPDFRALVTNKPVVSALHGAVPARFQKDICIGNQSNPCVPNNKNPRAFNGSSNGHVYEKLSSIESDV
Sequence of NR1/NR2B (Homo sapiens (Human), UniProt Q13224) (Q13224 27-1484, other chains not shown): as above

`O=C(Nc1cccnc1)N1C[C@@H]2C[C@@](O)(c3ccccc3)C[C@@H]2C1` [Example 44]: the results for the IC50 in experiment [1] and in experiment [2] were 10 µM and more than 10 µM, respectively.

For `Cc1cccc(-c2ccc(C(=O)CN3C[C@@H]4C[C@@](O)(Cc5ccccc5)C[C@@H]4C3)cc2)c1` [Example 264, 2-((3aR,5r,6aS)-5-benzyl-5-hydroxyhexahydrocyclo-penta[c]pyrrol-2(1H)-yl)-1-(3′-methyl-[1,1′-biphenyl]-4-yl)ethanone], the IC50 (usually the midpoint of a concentration-inhibition curve) is 10 µM in experiment [1] and more than 10 µM in experiment [2].

With `Cc1ccccc1-c1cccc(C(=O)CN2C[C@@H]3C[C@@](O)(Cc4ccccc4)C[C@@H]3C2)c1` [Example 278, 2-((3aR,5r,6aS)-5-benzyl-5-hydroxyhexahydrocyclo-penta[c]pyrrol-2(1H)-yl)-1-(2′-methyl-[1,1′-biphenyl]-3-yl)ethanone], the values for the IC50 in experiment [1] and in experiment [2] were 10 µM and more than 10 µM, respectively.

As for `COC(=O)c1ccc(NC(=O)N2C[C@H]3C[C@@H](c4ccccc4)C[C@H]3C2)cc1` [Example 103, methyl 4-[({5-phenyl-octahydrocyclopenta[c]pyrrol-2-yl}carbonyl)amino]benzo-ate], the values for the IC50 in experiment [1] and in experiment [2] were 10 µM and more than 10 µM, respectively.

Consider `CO[C@@]1(Cc2ccccc2)C[C@H]2CN(CC(=O)c3ccc(O)c(F)n3)C[C@H]2C1` [Example 197, 2-((3aR,5r,6aS)-5-benzyl-5-methoxyhexahydrocyclo-penta[c]pyrrol-2(1H)-yl)-1-(6-fluoro-5-hydroxypyridin-2-yl)ethanone], for which the IC50 in experiment [1] is 10 µM; in experiment [2], more than 10 µM.

For `O=C(COc1ccc(C(=O)CN2C[C@@H]3C[C@@](O)(Cc4ccc(F)cc4)C[C@@H]3C2)cc1F)c1ccc(O)c(F)c1` [Example 173, 2-(2-fluoro-4-(2-((3aR,5r,6aS)-5-(4-fluorobenzyl)-5-hydroxyhexahydrocyclo-penta[c]pyrrol-2(1H)-yl)acetyl)phenoxy)-1-(3-fluoro-4-hydroxyphenyl)ethanone], the IC50 in experiment [1] was 10 µM; in experiment [2], more than 10 µM.

For the compound `Oc1ccc([C@@H](O)CN2C[C@@H]3C[C@@](O)(Cc4ccccc4)C[C@@H]3C2)cc1F` [Example 180, (3aR,5R,6aS)-5-benzyl-2-((R)-2-(3-fluoro-4-hydroxyphenyl)-2-hydroxyethyl)octahydro-cyclopenta[c]pyrrol-5-ol], the IC50 in experiment [1] was 0.0223 µM and 0.0228 µM; in experiment [2] it was less than 0.1 µM.

As for `CO[C@@]1(Cc2ccccc2)C[C@H]2CN(CC(=O)c3ccc(O)c(F)c3)C[C@H]2C1` [Example 170, 2-((3aR,5r,6aS)-5-benzyl-5-methoxyhexahydrocyclo-penta[c]pyrrol-2(1H)-yl)-1-(3-fluoro-4-hydroxyphenyl)ethanone], the IC50 in experiment [1] is 0.132 µM; in experiment [2] it was 0.1 to 1 µM.

Turning to `O=C(CCN1C[C@@H]2C[C@@](O)(Cc3ccccc3)C[C@@H]2C1)c1ccc(O)cc1` [Example 133, 3-((3aR,5r,6S)-5-benzyl-5-hydroxyhexahydrocyclo-penta[c]pyrrol-2(1H)-yl)-1-(4-hydroxyphenyl)propan-1-one], the IC50 in experiment [1] is 7.05 µM; in experiment [2], 1 to 10 µM.

As to `CC(=O)Nc1ccc(C(=O)CN2C[C@@H]3C[C@@](O)(Cc4ccccc4)C[C@@H]3C2)cc1` [Example 141, N-(4-(2-((3aR,5r,6aS)-5-benzyl-5-hydroxyhexahydrocyclo-penta[c]pyrrol-2(1H)-yl)acetyl)phenyl) acetamide], the values for the IC50 in experiment [1] and in experiment [2] were 10 µM and more than 10 µM, respectively.

For `Cc1ccc(NC(=O)N2C[C@@H]3C[C@@](O)(Cc4ccccc4)C[C@@H]3C2)c(C)c1` [Example 121, (3aR,5r,6aS)-5-benzyl-N-(2,4-dimethylphenyl)-5-hydroxyhexahydrocyclo-penta[c]pyrrole-2(1H)-carboxamide], the values for the IC50 in experiment [1] and in experiment [2] were 10 µM and more than 10 µM, respectively.

For the compound `O=C(CN1C[C@@H]2CN(Cc3ccccc3)C[C@@H]2C1)c1ccc(O)cn1` [Example 328, 2-(5-benzylhexahydropyrrolo [3,4-c]pyrrol-2(1H)-yl)-1-(5-hydroxypyridin-2-yl)ethanone], the values for the IC50 in experiment [1] and in experiment [2] were 10 µM and more than 10 µM, respectively.

Regarding `O=C(CN1C[C@@H]2C[C@@](O)(Cc3ccccc3)C[C@@H]2C1)c1ncc(O)cn1` [Example 202, 2-[(3aR,5R,6aS)-5-benzyl-5-hydroxy-octahydrocyclopenta[c]pyrrol-2-yl]-1-(5-hydroxypyrimidin-2-yl)ethan-1-one], the IC50 is 10 µM in experiment [1] and more than 10 µM in experiment [2].

For `O=C(CN1C[C@H]2C[C@H](Cc3ccccc3)C[C@H]2C1)c1ccc(O)c(F)c1` [Example 308, 2-[(3aR,5R,6aS)-5-benzyl-octahydrocyclopenta[c]pyrrol-2-yl]-1-(3-fluoro-4-hydroxyphenyl) ethan-1-one], the IC50 in experiment [1] is 0.0522 µM; in experiment [2], less than 0.1 µM.

In the case of `O=C(CN1C[C@@H]2C[C@@](O)(Cc3ccc(C(F)(F)F)cc3)C[C@@H]2C1)c1ccc(O)cn1` [Example 216, 2-[(3aR,5R,6aS)-5-hydroxy-5-{[4-(trifluoromethyl)phenyl]methyl}-octahydrocyclopenta[c]pyrrol-2-yl]-1-(5-hydroxypyridin-2-yl)ethan-1-one], the IC50 in experiment [1] was 0.803 µM; in experiment [2], 0.1 to 1 µM.

For the compound `COC(=O)c1ccc(NC(=O)N2C[C@@H]3C[C@@](O)(c4ccccc4C)C[C@@H]3C2)cc1` [Example 22, Methyl 4-(5-hydroxy-5-(o-tolyl)octahydrocyclopenta [c]pyrrole-2-carboxamido)benzoate], the figures for the IC50 in experiment [1] and in experiment [2] were 10 µM and more than 10 µM, respectively.

For the compound `O=C(CN1C[C@H]2CC(Cc3ccccc3)C[C@H]2C1)c1ccc(O)cc1` (stereo partly drawn) [Example 295, 2-((3aR,6aS)-5-benzylhexahydrocyclo-penta[c]pyrrol-2(1H)-yl)-1-(4-hydroxyphenyl)ethanone], the IC50 in experiment [1] was 0.0517 µM; in experiment [2], less than 0.1 µM.

For `CS(=O)(=O)Nc1ccc(C(=O)CN2C[C@@H]3C[C@@](O)(Cc4ccccc4)C[C@@H]3C2)cc1` [Example 146, N-(4-(2-((3aR,5r,6aS)-5-benzyl-5-hydroxyhexahydrocyclo-penta[c]pyrrol-2(1H)-yl)acetyl)phenyl)methane-sulfonamide], the concentration for half-maximal inhibition (IC50) in experiment [1] was 0.326 µM; in experiment [2], 0.1 to 1 µM.

Turning to `COc1cccc(NC(=O)N2C[C@@H]3C[C@@](O)(Cc4ccccc4)C[C@@H]3C2)c1` [Example 119, (3aR,5r,6aS)-5-benzyl-5-hydroxy-N-(3-methoxy-phenyl)hexahydro-cyclopenta[c]pyrrole-2(1H)-carboxamide], the figures for the IC50 in experiment [1] and in experiment [2] were 10 µM and more than 10 µM, respectively.

For the compound `Cc1ccccc1[C@]1(O)C[C@H]2CN(c3cccc(C(F)(F)F)n3)C[C@H]2C1` [Example 84, 5-(2-methylphenyl)-2-[6-(trifluoromethyl)pyridin-2-yl]-octahydrocyclopenta[c] pyrrol-5-ol], the results for the half-maximal inhibitory concentration (IC50) in experiment [1] and in experiment [2] were 10 µM and more than 10 µM, respectively.

As to `COc1cccc(C[C@]2(O)C[C@H]3CN(CC(=O)c4ccc(O)cn4)C[C@H]3C2)c1` [Example 193, 2-((3aR,5r,6aS)-5-hydroxy-5-(3-meth-oxybenzyl)hexahydro-cyclopenta[c]pyrrol-2(1H)-yl)-1-(5-hydroxypyridin-2-yl)ethanone], the IC50 in experiment [1] was 10 µM; in experiment [2], more than 10 µM.
